Source: US4225619A, “Substituted fluoracylresorcinols” (Boehringer Ingelheim GmBH, priority 1976, dated 1980)
Converted amounts (≈) assume the structure as drawn.

Key:
Format in all cases: cell-based
HeLa-cell culture = experiment: Inhibition of HeLa cell cultures; details: Homo sapiens, 72 h, 37° C. for 3 days, 5% carbon dioxide; for IC50: read-out: ED50, HeLa cell culture; for minimal effective concentration: read-out: Minimal inhibitory concentration, HeLa cell culture
Method: Measurement of the inhibition of cell cultures
HeLa-cell culture was treated with trypsin and adjusted to a cell number of 150,000 cells/ml of fresh medium. The substance was always dissolved in the same quantity of dimethyl sulfoxide and then further diluted with growth medium. 0.1 ml of the substance-dilutions were added to each well of microtiter plates and then 0.2 ml of cell suspension were added (4 wells per dilution). Several growth controls containing 0.1 ml of growth medium instead of 0.1 ml of substance dilution were put up. After careful mixing, the cultures were incubated at 37° C. for 3 days in a 5% carbon dioxide atmosphere. The reading was effected in comparison with these controls. The results were given as the percentage of the deficiency and degeneration compared to the growth control. […] The statements are referred to μg of substance per ml of total medium.

Corynebacterium acnes = experiment: Serial dilution test for Corynebacterium acnes; details: for MIC: Cutibacterium acnes, 37° C. for 48 hours, read-out: MIC, S.D.T., Corynebacterium acnes
Method: (§1) Serial dilution test for Corynebacterium acnes and Pityrosporum ovale Nutrient medium
(§2) For Corynebacterium acnes: thioglycolate-broth for Pityrosporum ovale: Littmann's broth, 5 ml per tube.
(§3) Suspension of microorganisms in 0.9% sodium chloride solution, standardized using a photometer according to Eppendorf by means of a suspension for comparison consisting of barium sulfate, for Corynebacterium acnes in a dilution of 1:100, for Pityrosporum ovale in an undiluted state. 0.1 ml of the suspensions was used per test tube. Dimethyl sulfoxide served as a solvent for the substances.
(§4) The suspension with Corynebacteria acnes was incubated at 37° C. for 48 hours, the suspension of Pityrosporum ovale at 27° C. for 7 days. The reading was effected by macroscopic evaluation of the growth of microorganisms and registration of the minimal inhibitory concentration.

[1] = test system: Pityrosporum ovale CBS 1878; experiment: Agar diffusion test for Pityrosporum ovale CBS 1878; details: Malassezia furfur, CBS1878, 168 h, 7 days at 27° C., read-out: MIC, A.D.T., Pityrosporum ovale
Method: Agar diffusion test for Pityrosporum ovale CBS 1878 Nutrient medium
Littmann's agar, 23 ml per Petri dish, diameter of dish 100 mm.
Suspension of microorganisms in 0.9% sodium chloride solution, standardized using a photometer according to Eppendorf by means of a suspension for comparison consisting of barium sulfate. 0.05 ml per plate were used. The test substances were dissolved in dimethyl sulfoxide. The incubation time was 7 days at 27° C.; the area of inhibition in mm was measured, 0.05 ml of the solution of the substance were used for each punch-hole of a diameter of 6 mm. The results of these tests are recorded in the following tables 1 and 2: […]

Pityrosporum ovale = experiment: Serial dilution test for Pityrosporum ovale; details: Malassezia furfur, 168 h, 27° C. for 7 days, read-out: MIC, S.D.T., Pityrosporum ovale
Method: as §1, §2, §3, §4

[2] = test system: Streptococcus pyogenes At CC 86 68; experiment: Serial dilution test; details: Streptococcus pyogenes, ATCC8668, 18-20 hours at 37° C., read-out: MIC, S.D.T., Streptococcus pyogenes
Method: (§5) The inhibitory effect on bacteria and fungi was examined by the serial dilution test and the agar diffusion test (hole-test). As bacteria were used: Staphylococcus aureus SG 511, Streptococcus Aronson, Streptococcus pyogenes At CC 86 68; as fungi: Candida albicans AT CC 10231, Trichophyton mentagrophytes AT CC 9129 and Aspergillus niger.
(§6) 2. Glucose broth: for Sc. Aronson and St. pyogenes Recipe see meat extract broth. After sterilization 1 weight percent of glucose is added as a sterile 50% solution.
(§7) The age of the primary cultures is 24 hours for bacteria and 14 days for fungi. The standardization of the suspension of microorganisms is effected using a photometer according to Eppendorf (test tube .phi.14 mm, filter 546 nm) and a suspension for comparison consisting of barium sulfate, this suspension being created by adition of 3.0 ml of 1% barium chloride solution to 97 ml of 1% sulfuric acid. After the standardization the bacteria were further diluted to a concentration of 1:1000 by means of sodium chloride solution, the fungi were used in an undiluted state.
(§8) 40 mgm of the substance were put into a 10 ml measuring flask and filled up to the mark with the solvent (corresponds to a dilution of 1:250=4000 μg/ml). The further dilution series was standardized with distilled water or the respective solvent and the following substance concentrations were prepared: 1000; 250; 62.5 μg/ml.
(§9) The tubes were filled with 4.9 ml of the corresponding liquid nutrient medium. Then 0.1 ml of the substance dilution prepared above was added to each tube, so that the mentioned final concentrations were present. Finally each tube was inoculated with 0.1 ml of the standardized suspension of microorganisms. Control tests merely using the solvent are to be carried out simultaneously.
(§10) Bacteria were incubated at 37° C. for 18-20 hours and fungi at 27° C. for 7 days.
(§11) The measurement is carried out macroscopically defining the minimal inhibitory concentration (the lowest still microbiostatically effective concentration).

Streptococcus Aronson [3] = experiment: Serial dilution test; details: Streptococcus, 18-20 hours at 37° C., read-out: MIC, S.D.T., Streptococcus Aronson
Method: as §5, §6, §7, §8, §9, §10, §11

[4] = test system: Streptococcus pyogenes At CC 86 68; experiment: Agar diffusion test (hole-test); details: ATCC8668, 18-20 hours at 37° C., read-out: MIC, A.D.T., Streptococcus pyogenes
Method: as §5
(§12) 2. Glucose agar: for Sc. Aronson and St. pyogenes Recipe see meat extract agar. After sterilization 1 weight percent of glucose is added as a sterile 50% solution.
as §7, with “addition” for “adition”, “St. aureus SG 511 was” for “the bacteria were further”, “diluted” for “diluted to a concentration of”, “1:1000 and Sc. pyogenes and Aronson 1:100” for “1:1000”, “solution. The” for “solution, the”
(§13) 40 mgm of the substance were put into a 10 ml measuring flask and filled up to the mark with the solvent (corresponds to a dilution of 1:250=4000 μg/ml).
(§14) The dilutions to the concentrations under test were effected with distilled water or the respective solvent.
(§15) 19 ml of the nutrient medium were filled into sterile Petri dishes of a diameter of 8 cm and dried. Subsequently the agar plates were charged with 4 ml of seed agar. 100 ml of seed agar contain 1.25 ml of the suspension of microorganisms, an agar plate thus containing 0.05 ml of the suspension of microorganisms. After solidification of the agar, 5 holes of a diameter of 5 mm were punched into the plates and filled with 0.05 ml of the correspondingly concentrated substance solution.
(§16) Control tests merely using the solvent are to be carried out simultaneously.
as §10
(§17) The diameter of the area of inhibition in mm was measured after having deducted the diameter of the hole.

Streptococcus Aronson [5] = experiment: Agar diffusion test (hole-test); details: 18-20 hours at 37° C., read-out: MIC, A.D.T., Streptococcus Aronson
Method: as §5, §12
as §7, with “addition” for “adition”, “St. aureus SG 511 was” for “the bacteria were further”, “diluted” for “diluted to a concentration of”, “1:1000 and Sc. pyogenes and Aronson 1:100” for “1:1000”, “solution. The” for “solution, the”
as §13, §14, §15, §16, §10, §17

| SMILES | IC50 (HeLa-cell culture) [µg/mL] | MIC (Corynebacterium acnes) [µg/mL] | MIC [1] [µg/mL] | MIC (Pityrosporum ovale) [µg/mL] | MIC [2] [µg/mL] | MIC (Streptococcus Aronson [3]) [µg/mL] | MIC [4] [µg/mL] | MIC (Streptococcus Aronson [5]) [µg/mL] | minimal effective concentration (HeLa-cell culture) [µg/mL] | Concentration with reduced growth (value in brackets), S.D.T., Corynebacterium acnes (Corynebacterium acnes; reduced growth at this concentration) [µg/mL] |
| --- | --- | --- | --- | --- | --- | --- | --- | --- | --- | --- |
| CCc1cc(C(=O)C(F)(F)F)c(O)cc1O [B, 5-Ethyl-2,4-dihydroxy-trifluoroacetophenone, reference compound] | 9.75 (≈ 41.6 µM) | 20 (≈ 85.4 µM) | 1000 (≈ 4270 µM) | 80 (≈ 342 µM) | 20 (≈ 85.4 µM) | 20 (≈ 85.4 µM) | 250 (≈ 1070 µM) | 250 (≈ 1070 µM) | 6.25 |  |
| O=C(c1ccc(O)cc1O)C(F)(F)F [A, 2,4-Dihydroxy-trifluoroacetophenone, reference compound] | 12.5 (≈ 60.6 µM) | 80 (≈ 388 µM) | 1000 (≈ 4850 µM) | 80 (≈ 388 µM) |  | 80 (≈ 388 µM) |  | 1000 (≈ 4850 µM) | 3.13 |  |
| CCc1c(O)ccc(C(=O)C(F)(F)F)c1O [C, 3-Ethyl-2,4-dihydroxy-trifluoroacetophenone, reference compound] |  | 1.25 (≈ 5.34 µM) | 1000 (≈ 4270 µM) | > 80 | 1.25 (≈ 5.34 µM) | 5 (≈ 21.4 µM) | 62.5 (≈ 267 µM) | 62.5 (≈ 267 µM) |  |  |
| COc1ccc(C(=O)C(F)(F)F)c(OC)c1 [D, 2,4-Dimethoxy-trifluoroacetophenone, reference compound] | 90.1 (≈ 385 µM) | > 80 | > 4000 | > 80 | > 80 | > 80 | > 4000 | > 4000 | 25 |  |
| CC(C)c1c(O)ccc(C(=O)C(F)(F)F)c1O [P, 2,4-Dihydroxy-3-isopropyl-trifluoroacetophenone] | 3.52 (≈ 14.2 µM) | 5 (≈ 20.1 µM) |  |  | 1.25 (≈ 5.04 µM) | 1.25 (≈ 5.04 µM) | 62.5 (≈ 252 µM) | ≤ 15.6 | 1.56 | 1.25 |

Further lines, with some results ahead:

| IC50 (HeLa-cell culture) [µg/mL] | MIC (Corynebacterium acnes) [µg/mL] | MIC [1] [µg/mL] | MIC (Pityrosporum ovale) [µg/mL] | MIC [2] [µg/mL] | MIC (Streptococcus Aronson [3]) [µg/mL] | MIC [4] [µg/mL] | MIC (Streptococcus Aronson [5]) [µg/mL] | SMILES | minimal effective concentration (HeLa-cell culture) [µg/mL] | Concentration with reduced growth (value in brackets), S.D.T., Corynebacterium acnes (Corynebacterium acnes; reduced growth at this concentration) [µg/mL] |
| --- | --- | --- | --- | --- | --- | --- | --- | --- | --- | --- |
| 4.2 (≈ 13.9 µM) | 1.25 (≈ 4.14 µM) | 1000 (≈ 3310 µM) | > 80 | 0.31 (≈ 1.03 µM) | 1.25 (≈ 4.14 µM) | ≤ 15.6 | ≤ 15.6 | CC1CCC(c2c(O)ccc(C(=O)C(F)(F)F)c2O)CC1 (stereo not shown) [H, 2,4-Dihydroxy-3-(4'-methyl)-cyclohexyl-trifluoro-acetophenone] | ≤ 0.78 |  |
| 7.7 (≈ 29.4 µM) | 0.31 (≈ 1.18 µM) | 250 (≈ 953 µM) | 80 (≈ 305 µM) | 1.25 (≈ 4.77 µM) | 1.25 (≈ 4.77 µM) | ≤ 15.6 | ≤ 15.6 | CC(C)Cc1c(O)ccc(C(=O)C(F)(F)F)c1O [F, 2,4-Dihydroxy-3-iso-butyl-trifluoroacetophenone] | 0.78 |  |
